Non-standard residues stand in square brackets, D forms with d. Residues, ends and D or L forms follow the SMILES beside them.
Tests used:
[1] = in vitro; details: C57BL/6J, mouse, mouse tail fibroblast (MTF) cells
Procedure: Mouse tail fibroblast (MTF) cells were derived from the tails of C57BL/6J mice. Tails were removed, immersed in 70% ethanol and then cut into small sections with a razor blade. The sections were washed three times with PBS and then incubated in a shaker at 37° C. with 0.5 mg/mL collagenase, 100 units/mL penicillin and 100 μg/mL streptomycin to disrupt tissue. Tail sections were then cultured in complete media (Dulbecco's Modified […] Medium with 20% FBS, 1 mM sodium pyruvate, nonessential amino acids and 100 units/mL penicillin and 100 μg/mL streptomycin) until cells were established. Cells were cultured at 37° C., 5% CO2 in complete media as outlined above.
Cells were be plated per well in a microtiter plate the day before transfection in complete media. The siRNA was be labeled, for example with a FAM, Alexa488, Alexa647 or Cy-5 conjugate. The cationic polymer peptide and siRNA were mixed in the microtiter plate complex with cells previously with OptiMEM. 7-AAD was added to each transfection to measure cell viability. Cells were transfected for three hours at 37° C., 5% CO2. The transfection mixture was removed and the cells were washed with TE buffer for about 10 minutes at 37° C., 5% CO2. Transfected cells were transferred to a V bottom plate and centrifuged. The TE buffer was removed and the transfected cells were resuspended in fluorescence activated cell sorting (FACS) buffer.
A non-transfection, siRNA alone, control was also performed. The peptide PN183 served herein as a positive cell-uptake control.
Cell-uptake is expressed as a percentage of the total cells with intracellular labeled siRNA. Cell Viability is also expressed as a percentage where 100% represents 100% viability. The MFI value is a relative value with a higher MFI value indicating a greater amount of labeled siRNA entered the cell. Within Table 3, “ND” means no data.

[2] = tested on: Mouse tail fibroblast (MTF) cells; assay: siRNA cell-uptake and MFI measured by FACS after peptide-mediated transfection of labeled siRNA; assay type: cell-based; details: for % Cell-Uptake / MFI: 200 nM labeled siRNA; for % Cell-Uptake: % of total cells with intracellular labeled siRNA; for MFI: relative value, higher = more labeled siRNA entered the cell
Procedure: SiRNA cell uptake was measured by FACS.
For the instant example, cell-uptake, mean fluorescent intensity (MFI) and cell viability was measured for each peptide. siRNA cell-uptake was measured by the presence of intracellular labeled siRNA. The cell-uptake assay determined the percentage of cells that contain the labeled siRNA. Mean Fluorescence Intensity (MFI) was used to determine the relative mean quantity of labeled siRNA that entered the cells.
A non-transfection, siRNA alone, control was also performed.
Within Table 3, “ND” means no data.

Compound | viability at 3 h, 1 µM [1] [%] | viability at 3 h, 10 µM [1] [%] | viability at 3 h, 100 µM [1] [%] | % Cell-Uptake ([2]; peptide concentration 1 μM) [%] | MFI ([2]; peptide concentration 1 μM) | % Cell-Uptake ([2]; peptide concentration 10 μM) [%] | MFI ([2]; peptide concentration 10 μM) | % Cell-Uptake ([2]; peptide concentration 100 μM) [%] | MFI ([2]; peptide concentration 100 μM) | intracellular delivery of siRNA (verbal conclusion from cell-uptake and cell viability) ([2]; conclusion drawn from Table 3)
CC[C@H](C)[C@H](NC(=O)[C@H](CCCCN)NC(=O)[C@@H](NC(=O)[C@H](CCC(N)=O)NC(=O)[C@H](CCCNC(=N)N)NC(=O)[C@H](CS)NC(=O)[C@@H](NC(=O)[C@H](CO)NC(=O)[C@H](CCCNC(=N)N)NC(=O)[C@H](Cc1c[nH]cn1)NC(=O)[C@H](Cc1c[nH]cn1)NC(=O)[C@H](Cc1c[nH]cn1)NC(=O)[C@H](Cc1c[nH]cn1)NC(=O)[C@H](Cc1c[nH]cn1)NC(=O)[C@@H](N)Cc1c[nH]cn1)C(C)C)[C@@H](C)CC)C(=O)N[C@@H](CS)C(=O)N[C@@H](CCCNC(=N)N)C(=O)N[C@@H](CCCNC(=N)N)C(=O)N[C@@H](CCCNC(=N)N)C(=O)NCC(=O)NCC(=O)N[C@@H](CS)C(=O)N[C@@H](Cc1ccc(O)cc1)C(=O)N[C@@H](Cc1ccc(O)cc1)C(=O)N[C@@H](CCCCN)C(=O)N[C@@H](CS)C(=O)N[C@H](C(=O)N[C@@H](CC(N)=O)C(=O)N[C@@H](CCCNC(=N)N)C(=O)N1CCC[C@H]1C(=O)N[C@@H](Cc1ccc(O)cc1)C(N)=O)[C@@H](C)O [PN951] (H-HHHHHHRSVCRQIKICRRRGGCYYKCTNRPY-NH2) | 97.2 | 99.1 | 97.9 | 31.8 | 4.02 | 80.1 | 14.3 | 45.7 | 9.19 | 
H-KKKKKKKKKK-NH2 [PN932, NH2-(Lys)10-amide] | 97.3 | 96.7 | 98.4 | 0.4 |  | 1 |  | 1 |  | 
N=C(N)NCCC[C@@H](N)C(=O)N[C@@H](CCCNC(=N)N)C(=O)N[C@H](CCCNC(=N)N)C(=O)N[C@@H](CCCNC(=N)N)C(=O)N[C@H](CCCNC(=N)N)C(=O)N[C@@H](CCCNC(=N)N)C(=O)N[C@H](CCCNC(=N)N)C(=O)N[C@@H](CCCNC(=N)N)C(=O)N[C@H](CCCNC(=N)N)C(=O)N[C@@H](CCCNC(=N)N)C(=O)N[C@H](CCCNC(=N)N)C(=O)N[C@@H](CCCNC(=N)N)C(=O)N[C@H](CCCNC(=N)N)C(=O)N[C@@H](CCCNC(=N)N)C(=O)N[C@H](CCCNC(=N)N)C(=O)N[C@@H](CCCNC(=N)N)C(=O)N[C@H](CCCNC(=N)N)C(=O)N[C@@H](CCCNC(=N)N)C(=O)N[C@H](CCCNC(=N)N)C(=O)N[C@@H](CCCNC(=N)N)C(N)=O [PN912, NH2-(Xaa-Arg)10-amide] (H-[dR]R[dR]R[dR]R[dR]R[dR]R[dR]R[dR]R[dR]R[dR]R[dR]R-NH2) | 96.9 | 96.1 | 90 | 61.2 | 4.32 | 73.3 | 4.72 | 86.2 | 5.41 | effective intracellular delivery of siRNA without negatively impacting cell viability

From US20070275923A1, “CATIONIC PEPTIDES FOR siRNA [sequence] [sequence]” (NASTECH PHARMACEUTICAL COMPANY INC., priority 2006, published 2007)
